According to ChEMBL document CHEMBL4814031, “In pursuit of a selective hepatocellular carcinoma therapeutic agent: Novel thalidomide derivatives with antiproliferative, antimigratory and STAT3 inhibitory properties” (Eur J Med Chem, 2021):
Active and inactive are the calls of the source. No cut-off for these calls is given here.

Assays:
[1] = Antiproliferative activity against mouse BMOL-NT cells assessed as cell growth by measuring doubling time at 10 uM measured every 4 hrs for 3 days by IncuCyte zoom live cell analysis (reference value: 18 to 19 hrs); type: cell-based; settings: 72 h, time 3 day
[2] = Antiproliferative activity against mouse BMOL-NT cells assessed as change in doubling time at 10 uM measured every 4 hrs for 3 days by IncuCyte zoom live cell analysis relative to control; type: cell-based; settings: 72 h, time 3 day
[3] = Selectivity for antiproliferative activity against mouse BMOL-T cells over mouse BMOL-NT cells at 10 uM measured every 4 hrs for 3 days by IncuCyte zoom live cell analysis; settings: time 3 day
[4] = Antiproliferative activity against mouse BMOL-T cells assessed as cell growth by measuring doubling time at 10 uM measured every 4 hrs for 3 days by IncuCyte zoom live cell analysis (reference value: 14.3 to 15 hrs); type: functional; settings: time 3 day
[5] = Antiproliferative activity against mouse BMOL-T cells assessed as change in doubling time at 10 uM measured every 4 hrs for 3 days by IncuCyte zoom live cell analysis relative to control; type: functional; settings: time 3 day
[6] = test system: BMOL-T; experiment: Antiproliferative activity against mouse BMOL-T cells assessed as cell growth inhibition at 10 uM measured every 4 hrs for 3 days by IncuCyte zoom live cell analysis relative to control; type: functional; settings: time 3.0 day
[7] = Antiproliferative activity against mouse BMOL-NT cells assessed as cell growth inhibition at 10 uM measured every 4 hrs for 3 days by IncuCyte zoom live cell analysis relative to control; type: cell-based; settings: time 3 day; for inhibition at 72 h, 10 µM: BMOL-NT cells

## CNC(=O)c1cc(Oc2ccc(NC(=O)Nc3ccc(Cl)c(C(F)(F)F)c3)cc2)ccn1 [SORAFENIB]
[1]
  Time: 50 h
[2]
  Activity: 181%
[3]
  Selectivity ratio: 2.1
[4]
  Time: 71 h
[5]
  Activity: 382%

## O=C1CCC(N2C(=O)c3cccc(Nc4ccc(O)cc4)c3C2=O)C(=O)N1 (stereo not given)
[6]
  Activity: Active

## CN(C)c1ccc(Nc2cccc3c2C(=O)N(C2CCC(=O)NC2=O)C3=O)cc1 (stereo not given)
[6]
  Activity: Active

## CC(C)c1ccc(S(=O)(=O)c2cccc3c2C(=O)N(C2CCC(=O)NC2=O)C3=O)cc1 (stereo not given)
[1]
  Time: 17.4 h
[2]
  Activity: 3%
[4]
  Time: 14.9 h
[5]
  Activity: 3%

## Cc1ccccc1Nc1cccc2c1C(=O)N(C1CCC(=O)NC1=O)C2=O (stereo not given)
[6]
  Activity: inactive

## CC(C)c1ccc(Sc2cccc3c2C(=O)N(C2CCC(=O)NC2=O)C3=O)cc1 (stereo not given)
[1]
  Time: 17.2 h
[2]
  Activity: 3%
[4]
  Time: 16.2 h
[5]
  Activity: 19%

## Cc1ccc(Sc2cccc3c2C(=O)N(C2CCC(=O)NC2=O)C3=O)cc1 (stereo not given)
[1]
  Time: 19.3 h

## CCCc1ccc(Nc2cccc3c2C(=O)N(C2CCC(=O)NC2=O)C3=O)cc1 (stereo not given)
[6]
  Activity: Active

## O=C1CCC(N2C(=O)c3cccc(Sc4ccc(C(F)(F)F)cc4)c3C2=O)C(=O)N1 (stereo not given)
[6]
  Activity: inactive

## Nc1cccc2c1C(=O)N(C1CCC(=O)NC1=O)C2=O (stereo not given) [POMALIDOMIDE]
[1]
  Time: 18 h
[4]
  Time: 15 h

## COc1ccc(Sc2cccc3c2C(=O)N(C2CCC(=O)NC2=O)C3=O)cc1 (stereo not given)
[7]; bmol-nt, 72 h, 10 µM
  Activity: Toxic

## COc1ccc(Nc2cccc3c2C(=O)N(C2CCC(=O)NC2=O)C3=O)cc1 (stereo not given)
[6]
  Activity: Active

## O=C1CCC(N2C(=O)c3cccc(Sc4ccccc4)c3C2=O)C(=O)N1 (stereo not given)
[1]
  Time: 16.8 h
[2]
  Activity: 1%
[4]
  Time: 13.8 h
[5]
  Activity: 2%

## O=C1CCC(N2C(=O)c3cccc(Sc4ccc(C(F)(F)F)cn4)c3C2=O)C(=O)N1 (stereo not given)
[6]
  Activity: inactive

## CC(C)c1ccc(Oc2cccc3c2C(=O)N(C2CCC(=O)NC2=O)C3=O)cc1 (stereo not given)
[1]
  Time: 17.5 h
[4]
  Time: 15.4 h
[5]
  Activity: 5%

## CCCCc1ccc(Nc2cccc3c2C(=O)N(C2CCC(=O)NC2=O)C3=O)cc1 (stereo not given)
[7]
  inhibition at 72 h, 10 µM: ≤ 10%
[6]
  Activity: Active

## O=C1CCC(N2C(=O)c3cccc(Nc4ccc5c(c4)CCCC5)c3C2=O)C(=O)N1 (stereo not given)
[7]
  inhibition at 72 h, 10 µM: ≤ 10%
[6]
  Activity: Active
